The source of these data is patent US9428460B2, “N-[4-(quinolin-4-yloxy)cyclohexyl(methyl)](hetero)arylcarboxamides as androgen receptor antagonists, production and use thereof as medicinal products” (BAYER PHARMA AKTIENGESELLSCHAFT, priority 2012, dated 2016).

Common to all, as to format: cell-based
In one test the test system is LAPC-4 cells. Briefly: Proliferation assay with LAPC-4 cells. The settings on record: Homo sapiens, LAPC4, 168 h; in the presence of 1×10^−9 M R1881, seven days, AlamarBlue; read-out: IC50 LAPC-4 cell proliferation. The protocol:
LAPC-4 cells (Klein et al., Nat Med. 3(4): 402-8, 1997) were plated out at a density of 4000 cells per well of a 96-well cell culture plate in RMPI 1640 medium (F1275, Biochrom AG) that contained activated charcoal-treated calf serum (FCS Serum Gold, PAA Laboratories) at a concentration of 10% (v/v). On the next day the cells were treated with the test substances in concentrations from 1×10^−8 to 1×10^−10 M in the presence of 1×10^−9 M R1881. Cell proliferation was determined seven days later after incubation for 2 hours with AlamarBlue (DAL1100, Invitrogen) (Nakayama et al., J Immunol Methods, 204(2): 205-8, 1997). The fluorescence values obtained were normalized, wherein 100% corresponded to the effect of the unstimulated control (without R1881), and 0% corresponded to the effect of the stimulated control (R1881 plus DMSO instead of test substance). The IC50 value was determined by regression analysis based on a four-parameter equation (minimum, maximum, IC50, Hill coefficient; Y=Max+(Min−Max)/(1+(X/IC50)^Hill)).
(Alamar Blue is a resazurin reagent that responds to reducing activity.)

Test [1] deals with androgen receptor mutant W741C (Homo sapiens (Human), UniProt P10275, W742C). Briefly: Transactivation assay for the androgen receptor mutant W741C (transfected PC-3 cells). The settings on record: in the presence of 1×10^−10 M R1881, 24 hours. On the procedure:
PC-3 cells (Kaighn et al., Invest. Urol. 17: 16-23, 1979) were plated out at a density of 10000 cells per well of a 96-well cell culture plate in RMPI 1640 medium (F1235, Biochrom AG, Berlin, Germany), which contained activated charcoal-treated calf serum (FCS Serum Gold, PAA Laboratories) at a concentration of 5% (v/v). On the next day the cells were transiently transfected with the pSG5-vector (#216201 Stratagene), which contained the sequence of the androgen receptor mutant W741C (Haapala et al., Lab Invest. 81(12): 1647-51, 2001), and with a reporter plasmid based on pGL4.14 (#E6691, Promega) with the luciferase-gene (from Photinus pyralis) under the control of the MMTV promoter (Cato et al., EMBO J. 6: 363-8, 1987). The cells were treated with the test substances in concentrations from 1×10^−8 to 1×10^−10 M in the presence of 1×10^−10 M R1881 and were incubated overnight at 37° C. and 5% CO2. After 24 hours, 100 μl of Steady Glo Lysis and Detection reagent (E2550, Promega) was added per well and the luminescence was read in a Victor3 Luminometer (PerkinElmer) for 1 second per well. The luminescence values obtained were normalized, wherein 100% corresponded to the effect of the unstimulated control (without R1881), and 0% corresponded to the effect of the stimulated control (R1881 plus DMSO instead of test substance). The IC50 value was determined by regression analysis based on a four-parameter equation (minimum, maximum, IC50, Hill coefficient; Y=Max+(Min−Max)/(1+(X/IC50)^Hill)).

Test [2] addresses human androgen receptor (full length, wild-type form) (Homo sapiens (Human), UniProt P10275). Put plainly: Transactivation assay for the wild-type androgen receptor (PC-3 cells, MMTV-luciferase reporter). The settings on record: in the presence of R1881, 16 hours. From the text: For determining the androgen receptor-dependent transcription, a cellular assay system was used, consisting of PC-3 cells (Kaighn et al., Invest. Urol. 17: 16-23, 1979), which express the human androgen receptor stably and recombinantly (full length, wild-type form, see Swiss-Prot Acc. No. P10275, Entry Version 159, Sequence Version 2). In addition, these PC3 cells contain a stably integrated reporter gene plasmid, which is based on the commercially available plasmid pGL4.14 (#E6691, Promega Corporation, Madison, Wis., USA) and contains the luciferase gene from the American firefly (Photinus pyralis) under the control of the MMTV promoter (Cato et al., EMBO J. 6: 363-368, 1987). These cells were propagated in routine cell culture at 37° C. and 5% CO2 in a medium containing 90% RPMI 1640 (Invitrogen GmbH, Darmstadt, Germany), 100 U penicillin, 100 μg/ml streptomycin (Invitrogen), 4 mM L-glutamine (Invitrogen), 10% fetal calf serum (FCS Serum Gold, PAA Laboratories GmbH, Cölbe, Germany), 600 μg/ml Geneticin (G418-sulphate, Invitrogen) and 10 μg/ml puromycin (Sigma Aldrich GmbH, Germany).
For carrying out the transactivation assays, approx. 1000 cells per well were plated out in a 384-well cell culture plate in a medium that contained activated charcoal-treated calf serum (FCS Serum Gold, PAA Laboratories) at a concentration of 5% (v/v). The test substances were added in a concentration series from 5.12×10^−12 to 1×10^−5 M in the presence of […] R1881 (methyltrienolone). The test plates were incubated overnight at 37° C. and 5% CO2. After 16 hours, 15 μl of Steady Glo Lysis and Detection reagent (E2550, Promega Corporation, Madison, Wis., USA) was added per well and the luminescence was read in a Topcount Luminometer (PerkinElmer, Waltham, Mass., USA) for 4 seconds per well. The luminescence values obtained were normalized, wherein 100% corresponded to the effect of the unstimulated control (without R1881), and 0% corresponded to the effect of the stimulated control (R1881 plus DMSO instead of test substance). The IC50 value was determined by regression analysis based on a four-parameter equation (minimum, maximum, IC50, Hill coefficient; Y=Max+(Min−Max)/(1+(X/IC50)^Hill)).

Sequence of human androgen receptor (full length, wild-type form) (P10275 whole entry): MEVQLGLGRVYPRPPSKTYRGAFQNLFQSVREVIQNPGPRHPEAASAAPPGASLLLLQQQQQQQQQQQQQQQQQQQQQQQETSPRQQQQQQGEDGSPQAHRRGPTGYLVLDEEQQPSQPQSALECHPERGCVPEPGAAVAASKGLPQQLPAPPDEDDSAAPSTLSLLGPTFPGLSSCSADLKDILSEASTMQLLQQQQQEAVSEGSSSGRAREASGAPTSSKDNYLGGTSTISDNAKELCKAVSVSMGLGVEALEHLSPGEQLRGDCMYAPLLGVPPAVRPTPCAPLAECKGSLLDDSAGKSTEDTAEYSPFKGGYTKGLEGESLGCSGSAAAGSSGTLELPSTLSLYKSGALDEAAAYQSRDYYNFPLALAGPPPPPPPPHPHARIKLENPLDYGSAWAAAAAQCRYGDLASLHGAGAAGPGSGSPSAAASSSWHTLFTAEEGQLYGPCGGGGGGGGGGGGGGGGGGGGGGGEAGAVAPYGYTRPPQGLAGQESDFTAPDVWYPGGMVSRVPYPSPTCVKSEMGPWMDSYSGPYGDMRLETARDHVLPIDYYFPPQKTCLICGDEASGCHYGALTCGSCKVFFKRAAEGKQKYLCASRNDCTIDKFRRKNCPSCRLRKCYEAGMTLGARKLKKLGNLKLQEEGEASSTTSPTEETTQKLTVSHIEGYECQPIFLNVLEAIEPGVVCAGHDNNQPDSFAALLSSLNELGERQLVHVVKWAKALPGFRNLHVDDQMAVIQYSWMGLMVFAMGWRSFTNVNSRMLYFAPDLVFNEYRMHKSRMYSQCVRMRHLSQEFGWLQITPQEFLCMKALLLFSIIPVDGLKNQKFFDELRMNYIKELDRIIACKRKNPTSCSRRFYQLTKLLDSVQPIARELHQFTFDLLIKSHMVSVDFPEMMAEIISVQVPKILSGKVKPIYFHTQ
Sequence of androgen receptor mutant W741C (P10275 whole entry W742C): as the sequence (P10275 whole entry) above, with W742C counted along it

For `N#Cc1cccc2c(O[C@H]3CC[C@H](NC(=O)c4cccc(F)c4)CC3)ccnc12` [Example 23, N-{trans-4-[(8-cyanoquinolin-4-yl)oxy]cyclohexyl}-3-fluorobenzamide], the values for the IC50 (in the test on LAPC-4 cells; in test [1]; in test [2]) were 86 nM, 30 nM and 52 nM, respectively.
